The subject of series [1] is miR-155. Put plainly: Gel shift binding assay (PAGE, SYBR Gold). How it is done:
(1D) Dose-dependent gel shift binding assay of target miR-155 ([…]) with PNA-155 and γtcPNA-155 at indicated concentrations. The samples were prepared in the physiological buffer (2 mM MgCl2, 150 mM KCl, 10 mM NaPi) and incubated for 24 hours at physiological temperature (37° C.) followed by PAGE separation and visualization of bands by SYBr® Gold staining. […] (iii) γtcPNA-155 binding with the target miR-155 by Watson Crick and Hoogsteen base pairing. (iv) γtcPNA-155 binding with the miR-155 by Watson-Crick base pairing. (v) Clamp segment of γtcPNA-155 binding with the target miR-155 by Hoogsteen base pairing.
Gel shift assay: Different concentration of PNA-155 or gamma tcPNA-155 were made in physiological buffer (2 mM MgCl2, 150 mM KCl, 10 mM NaPi) and incubated overnight at 37° C. with 1 μM DNA-155 target. The samples were run through 8% Polyacrylamide gel electrophoresis (PAGE) gel in IX TBE buffer at 120 volts for 35 mins. The gel was stained with SyBr Gold for two mins and visualized using Gel Doc™ EZ Imager (Bio-rad). […]
Next, we evaluated the binding affinity of γtcPNA-155 and PNA-155 with the miR-155 target by polyacrylamide gel electrophoresis (PAGE) based protocols (FIG. 1D). We incubated PNA-155 and γtcPNA-155 with miR-155 at indicated concentrations in physiological buffer and temperature and assessed the binding by PAGE followed by SYBR gold staining. […]
Background: A gel shift assay detects complexes by their altered migration in electrophoresis.

The test system of another series is U2932 tumors. The series can be described thus: Immunostaining of Caspase-3 and Ki67 in treated U2932 tumors. As to conditions: U2932 xenograft. It counts as in vivo, NSG mice. How it is done: FIGS. 17A-D show in vivo studies in U2932 derived xenograft model. (17A) Biodistribution of γtcPNA-155 TAMRA in tumor sections (17B) Tumor volume fold change (n=6, data represented as mean±standard error mean (SEM), *p<0.05, **p<0.01, multiple t-tests one per row was used for statistical analysis). Asterisk denotes the analysis was performed relative to Scr-γtcPNA-155. Diamond symbol denotes the analysis was performed relative to PNA-155. (17C) Representative images showing the effects of Scr-γtcPNA-155, PNA-155, γPNA-155 and γtcPNA-155 on Caspase-3 immunostaining of tumor (magnification; ×20). Autofluorescence (AF) at 514 nm was used to show the tumor. Scale bar=[…]. (17D) Caspase-3 immunostaining quantification, *p<0.05. n=15. The n indicates the number of images.
FIGS. 21A-B show Ki-67 immunostaining (21A) and quantification (21B) in the in vivo treated tumors (n=15), **p<0.01. The n indicates the number of images. Scale bar=50 μm.
Histopathology and immunohistochemistry; The mice were sacrificed by CO2 inhalation when tumor volume reached 2000 mm^3. The tumor and vital organs (e.g., liver, kidney, spleen, lungs, heart) were carefully isolated, weighed, and fixed in the 10% NBF solution. The sections ([…]) of formalin-fixed paraffin-embedded liver and kidney were stained by hematoxylin and eosin for the histological analysis. […]

The subject of series [2] is miR-155. Put plainly: miR-155 gene expression by RT-PCR in SUDHL-2 cells. The series is classed as cell-based. The settings on record: SUDHL-2, 500 nM, 48 hours. On the procedure: Data represented as mean±standard error mean (SEM). Unpaired two-tailed t-test was used for statistical analysis, **p<0.01. The analysis was performed relative to Scr-γtcPNA-155.
Similarly, 400,000 SUDHL-2 cells were seeded in a 12 well plate and treated with 500 nM Scr gamma tcPNA-155, PNA-155 and gamma tcPNA-155 for 48 hrs in an incubator (37° C. and 5% CO2). The RNA was extracted and the samples for gene expression were prepared in the same manner as described above.

With “γtcPNA-155: serine gamma tail-clamp anti-miR-155 PNA, RR-TJJJJ-OOO-ACCCCTATCACGATTAGCATTAA-RR, SEQ ID NO: 3 (all peptide nucleic acid (PNA); serine gamma PNA, tail-clamp TJJJJ via linkers, Arg-Arg at both ends)”, the “binding affinity with miR-155 target (comparison)” value in the series with miR-155 [1] is listed as “stronger binding affinity compared to regular PNA-155”. Further, in the series with U2932 tumors, the “Caspase-3 positive cells in tumor sections” value is recorded as “increase” and the “Ki67 positive cells in tumor sections” value is “significant decrease”. Besides, in the series on miR-155 [2], the “decrease in miR-155 gene expression” value came to 63%.

The record behind these values is patent US20260092085A1, “SYNTHETIC TRIPLEX PEPTIDE NUCLEIC ACID-BASED INHIBITORS FOR CANCER THERAPY” (University of Connecticut, priority 2022, published 2026).
